Source: publication PMC4006998 (Nature chemical biology, 2009)

Columns and labels:
[1] = biological target: T1, AmpC β-lactamase (Escherichia coli, UniProt P00811); settings: at relevant concentrations; no reference given; cited from earlier work
[2] = biological target: CTX-M β-lactamase (Escherichia coli, UniProt Q9L5C8); assay type: biochemical; settings: Ki AmpC versus Ki CTX-M
[3] = biological target: T1, AmpC β-lactamase; assay type: biochemical; settings: read-out: Km of nitrocefin for AmpC; substrate; 100 mM Tris-HCl pH 7.0
[4] = tested on: O=C(Cc1cccs1)N[C@@H]1C(=O)N2C(C(=O)O)=C(/C=C/c3ccc([N+](=O)[O-])cc3[N+](=O)[O-])CS[C@H]12; assay: purified protein, by the assay type; settings: other: substrate, 100 mM Tris-HCl pH 7.0, 19.0 °C

T1 sequence (P00811 20-377): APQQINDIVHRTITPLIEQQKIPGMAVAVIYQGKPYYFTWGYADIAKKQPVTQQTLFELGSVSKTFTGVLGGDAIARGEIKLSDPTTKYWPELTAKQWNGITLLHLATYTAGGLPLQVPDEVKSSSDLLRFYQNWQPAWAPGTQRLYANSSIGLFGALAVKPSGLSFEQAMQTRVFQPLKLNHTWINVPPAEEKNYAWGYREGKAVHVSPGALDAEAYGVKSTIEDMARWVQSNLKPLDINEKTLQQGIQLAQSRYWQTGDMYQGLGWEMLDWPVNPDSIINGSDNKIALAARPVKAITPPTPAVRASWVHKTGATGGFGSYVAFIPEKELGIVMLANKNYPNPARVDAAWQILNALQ

In the case of `O=C(O)[C@H]1/C(=C/CO)O[C@@H]2CC(=O)N21` [clavulanate], the “inhibition of AmpC” value [1] is given as “does not inhibit AmpC at relevant concentrations”.

For `O=C(Nc1cccc(-c2nnn[nH]2)c1)c1cccc(F)c1` [Compound 12], the “specificity (CTX-M over AmpC)” value [2] was “over 100 fold”.

`O=C(Cc1cccs1)N[C@@H]1C(=O)N2C(C(=O)O)=C(/C=C/c3ccc([N+](=O)[O-])cc3[N+](=O)[O-])CS[C@H]12` [nitrocefin] showed a Km [3] of 400 µM.

CTX-M β-lactamase (Escherichia coli) gave a Km [4] of 11.6 µM.
